Where two headings read alike, the source gives them in different places.
Test system: Aedes aegypti
Assay: In vitro contact activity against adult mosquitoes (coated vial)
Method: Aedes aegypti (Louisiana Biologicals Inc., New Orleans, La.) eggs were allowed to hatch, close, and age between 3-5 days in an environmental chamber at 26° C., 80% humidity with light/dark cycles.
For mosquito assays, an aliquot from each compound stock was added to an acetone/triton solution to achieve the desired top doses for the study. Serial dilutions were conducted from the top dose (i.e. 50 ppm) to achieve the desired titration range for EC50 and EC90 determination. The final DMSO concentration in each test vial was 0.5%. A 459 μL aliquot of each compound formulation was transferred to a vial and vials were immediately placed on an unheated roller unit to allow for an even coating of the vial walls. The vials were loosely capped and allowed to dry for a minimum of four hours in a chemical fume hood.
For both contact and ingestion assays, five female Aedes aegypti adults were added to each vial or cage. The test vials for contact assays were held in an environmental chamber at 24° C., 80% humidity with light/dark cycles (12 hours each). The cages for mosquito ingestion assays were held in a temperature-controlled artificial feeding apparatus to allow continual access to organic bovine blood containing the desired concentration of compound. Fresh aliquots of compound-spiked bovine blood were provided daily for the duration of the study.
Mosquitoes showing no movement or mosquitoes that were knocked down were noted as dead. Results from trial 1 and trial 2 contact assays are shown in Tables 12 and 13, respectively and the results from trial 3 mosquito ingestion assay is shown in table 14.
For the mosquito contact and ingestion assays, each replicate contained 5 mosquitoes. For ease of calculation, the two replicates were added to equal a total of 10 mosquitoes.

## O=C(CC(F)(F)F)N1CC2(C1)OCc1cc(C3=NS[C@@](c4cc(Cl)c(F)c(Cl)c4)(C(F)(F)F)C3)ccc12 [C1 (S) enantiomer, (S)-1-[6-[5-(3,5-dichloro-4-fluoro-phenyl)-5-(trifluoromethyl)-4H-isothiazol-3-yl]spiro[1H-isobenzofuran-3,3′-azetidine]-1′-yl]-3,3,3-trifluoro-propan-1-one]
0.5 h, read-out: % Mortality R1 + R2, Trial 1, contact assay, dose 0.049 μM, 0.5 Hr
  mortality at 0.049 µM: 0%
0.5 h, read-out: % Mortality R1 + R2, Trial 1, contact assay, dose 0.20 μM, 0.5 Hr
  mortality at 0.2 µM: 0%
0.5 h, read-out: % Mortality R1 + R2, Trial 1, contact assay, dose 0.78 μM, 0.5 Hr
  mortality at 0.78 µM: 0%
0.5 h, read-out: % Mortality R1 + R2, Trial 1, contact assay, dose 3.125 μM, 0.5 Hr
  mortality at 3.125 µM: 0%
0.5 h, read-out: % Mortality R1 + R2, Trial 1, contact assay, dose 12.5 μM, 0.5 Hr
  mortality at 12.5 µM: 0%
0.5 h, read-out: % Mortality R1 + R2, Trial 1, contact assay, dose 50 μM, 0.5 Hr
  mortality at 50 µM: 0%
0.5 h, read-out: % Mortality R1 + R2, Trial 2, contact assay, dose 0.049 μM, 0.5 Hr
  mortality at 0.049 µM: 0%
0.5 h, read-out: % Mortality R1 + R2, Trial 2, contact assay, dose 0.20 μM, 0.5 Hr
  mortality at 0.2 µM: 0%
0.5 h, read-out: % Mortality R1 + R2, Trial 2, contact assay, dose 0.78 μM, 0.5 Hr
  mortality at 0.78 µM: 0%
0.5 h, read-out: % Mortality R1 + R2, Trial 2, contact assay, dose 3.125 μM, 0.5 Hr
  mortality at 3.125 µM: 0%
0.5 h, read-out: % Mortality R1 + R2, Trial 2, contact assay, dose 12.5 μM, 0.5 Hr
  mortality at 12.5 µM: 0%
0.5 h, read-out: % Mortality R1 + R2, Trial 2, contact assay, dose 50 μM, 0.5 Hr
  mortality at 50 µM: 0%
1 h, read-out: % Mortality R1 + R2, Trial 1, contact assay, dose 0.049 μM, 1 hr
  mortality at 0.049 µM: 0%
1 h, read-out: % Mortality R1 + R2, Trial 1, contact assay, dose 0.20 μM, 1 hr
  mortality at 0.2 µM: 0%
1 h, read-out: % Mortality R1 + R2, Trial 1, contact assay, dose 0.78 μM, 1 hr
  mortality at 0.78 µM: 0%
1 h, read-out: % Mortality R1 + R2, Trial 1, contact assay, dose 3.125 μM, 1 hr
  mortality at 3.125 µM: 0%
1 h, read-out: % Mortality R1 + R2, Trial 1, contact assay, dose 12.5 μM, 1 hr
  mortality at 12.5 µM: 0%
1 h, read-out: % Mortality R1 + R2, Trial 1, contact assay, dose 50 μM, 1 hr
  mortality at 50 µM: 0%
1 h, read-out: % Mortality R1 + R2, Trial 2, contact assay, dose 0.049 μM, 1 hr
  mortality at 0.049 µM: 0%
1 h, read-out: % Mortality R1 + R2, Trial 2, contact assay, dose 0.20 μM, 1 hr
  mortality at 0.2 µM: 0%
1 h, read-out: % Mortality R1 + R2, Trial 2, contact assay, dose 0.78 μM, 1 hr
  mortality at 0.78 µM: 0%
1 h, read-out: % Mortality R1 + R2, Trial 2, contact assay, dose 3.125 μM, 1 hr
  mortality at 3.125 µM: 0%
1 h, read-out: % Mortality R1 + R2, Trial 2, contact assay, dose 12.5 μM, 1 hr
  mortality at 12.5 µM: 0%
1 h, read-out: % Mortality R1 + R2, Trial 2, contact assay, dose 50 μM, 1 hr
  mortality at 50 µM: 0%
6 h, read-out: % Mortality R1 + R2, Trial 1, contact assay, dose 0.049 μM, 6 hr
  mortality at 0.049 µM: 0%
6 h, read-out: % Mortality R1 + R2, Trial 1, contact assay, dose 0.20 μM, 6 hr
  mortality at 0.2 µM: 0%
6 h, read-out: % Mortality R1 + R2, Trial 1, contact assay, dose 0.78 μM, 6 hr
  mortality at 0.78 µM: 0%
6 h, read-out: % Mortality R1 + R2, Trial 1, contact assay, dose 3.125 μM, 6 hr
  mortality at 3.125 µM: 0%
6 h, read-out: % Mortality R1 + R2, Trial 1, contact assay, dose 12.5 μM, 6 hr
  mortality at 12.5 µM: 30%
6 h, read-out: % Mortality R1 + R2, Trial 1, contact assay, dose 50 μM, 6 hr
  mortality at 50 µM: 100%
6 h, read-out: % Mortality R1 + R2, Trial 2, contact assay, dose 0.049 μM, 6 hr
  mortality at 0.049 µM: 0%
6 h, read-out: % Mortality R1 + R2, Trial 2, contact assay, dose 0.20 μM, 6 hr
  mortality at 0.2 µM: 0%
6 h, read-out: % Mortality R1 + R2, Trial 2, contact assay, dose 0.78 μM, 6 hr
  mortality at 0.78 µM: 0%
6 h, read-out: % Mortality R1 + R2, Trial 2, contact assay, dose 3.125 μM, 6 hr
  mortality at 3.125 µM: 0%
6 h, read-out: % Mortality R1 + R2, Trial 2, contact assay, dose 12.5 μM, 6 hr
  mortality at 12.5 µM: 10%
6 h, read-out: % Mortality R1 + R2, Trial 2, contact assay, dose 50 μM, 6 hr
  mortality at 50 µM: 100%
12 h, read-out: % Mortality R1 + R2, Trial 1, contact assay, dose 0.049 μM, 12 hr
  mortality at 0.049 µM: 0%
12 h, read-out: % Mortality R1 + R2, Trial 1, contact assay, dose 0.20 μM, 12 hr
  mortality at 0.2 µM: 0%
12 h, read-out: % Mortality R1 + R2, Trial 1, contact assay, dose 0.78 μM, 12 hr
  mortality at 0.78 µM: 0%
12 h, read-out: % Mortality R1 + R2, Trial 1, contact assay, dose 3.125 μM, 12 hr
  mortality at 3.125 µM: 10%
12 h, read-out: % Mortality R1 + R2, Trial 1, contact assay, dose 12.5 μM, 12 hr
  mortality at 12.5 µM: 70%
12 h, read-out: % Mortality R1 + R2, Trial 1, contact assay, dose 50 μM, 12 hr
  mortality at 50 µM: 100%
12 h, read-out: % Mortality R1 + R2, Trial 2, contact assay, dose 0.049 μM, 12 hr
  mortality at 0.049 µM: 0%
12 h, read-out: % Mortality R1 + R2, Trial 2, contact assay, dose 0.20 μM, 12 hr
  mortality at 0.2 µM: 10%
12 h, read-out: % Mortality R1 + R2, Trial 2, contact assay, dose 0.78 μM, 12 hr
  mortality at 0.78 µM: 0%
12 h, read-out: % Mortality R1 + R2, Trial 2, contact assay, dose 3.125 μM, 12 hr
  mortality at 3.125 µM: 20%
12 h, read-out: % Mortality R1 + R2, Trial 2, contact assay, dose 12.5 μM, 12 hr
  mortality at 12.5 µM: 100%
12 h, read-out: % Mortality R1 + R2, Trial 2, contact assay, dose 50 μM, 12 hr
  mortality at 50 µM: 100%
24 h, read-out: % Mortality R1 + R2, Trial 1, contact assay, dose 0.049 μM, 24 hr
  mortality at 0.049 µM: 0%
24 h, read-out: % Mortality R1 + R2, Trial 1, contact assay, dose 0.20 μM, 24 hr
  mortality at 0.2 µM: 0%
24 h, read-out: % Mortality R1 + R2, Trial 1, contact assay, dose 0.78 μM, 24 hr
  mortality at 0.78 µM: 0%
24 h, read-out: % Mortality R1 + R2, Trial 1, contact assay, dose 3.125 μM, 24 hr
  mortality at 3.125 µM: 60%
24 h, read-out: % Mortality R1 + R2, Trial 1, contact assay, dose 12.5 μM, 24 hr
  mortality at 12.5 µM: 100%
24 h, read-out: % Mortality R1 + R2, Trial 1, contact assay, dose 50 μM, 24 hr
  mortality at 50 µM: 100%
24 h, read-out: % Mortality R1 + R2, Trial 2, contact assay, dose 0.049 μM, 24 hr
  mortality at 0.049 µM: 0%
24 h, read-out: % Mortality R1 + R2, Trial 2, contact assay, dose 0.20 μM, 24 hr
  mortality at 0.2 µM: 30%
24 h, read-out: % Mortality R1 + R2, Trial 2, contact assay, dose 0.78 μM, 24 hr
  mortality at 0.78 µM: 0%
24 h, read-out: % Mortality R1 + R2, Trial 2, contact assay, dose 3.125 μM, 24 hr
  mortality at 3.125 µM: 100%
24 h, read-out: % Mortality R1 + R2, Trial 2, contact assay, dose 12.5 μM, 24 hr
  mortality at 12.5 µM: 100%
24 h, read-out: % Mortality R1 + R2, Trial 2, contact assay, dose 50 μM, 24 hr
  mortality at 50 µM: 100%
48 h, read-out: % Mortality R1 + R2, Trial 1, contact assay, dose 0.049 μM, 48 hr
  mortality at 0.049 µM: 0%
48 h, read-out: % Mortality R1 + R2, Trial 1, contact assay, dose 0.20 μM, 48 hr
  mortality at 0.2 µM: 10%
48 h, read-out: % Mortality R1 + R2, Trial 1, contact assay, dose 0.78 μM, 48 hr
  mortality at 0.78 µM: 10%
48 h, read-out: % Mortality R1 + R2, Trial 1, contact assay, dose 3.125 μM, 48 hr
  mortality at 3.125 µM: 100%
48 h, read-out: % Mortality R1 + R2, Trial 1, contact assay, dose 12.5 μM, 48 hr
  mortality at 12.5 µM: 100%
48 h, read-out: % Mortality R1 + R2, Trial 1, contact assay, dose 50 μM, 48 hr
  mortality at 50 µM: 100%
48 h, read-out: % Mortality R1 + R2, Trial 2, contact assay, dose 0.049 μM, 48 hr
  mortality at 0.049 µM: 0%
48 h, read-out: % Mortality R1 + R2, Trial 2, contact assay, dose 0.20 μM, 48 hr
  mortality at 0.2 µM: 90%
48 h, read-out: % Mortality R1 + R2, Trial 2, contact assay, dose 0.78 μM, 48 hr
  mortality at 0.78 µM: 100%
48 h, read-out: % Mortality R1 + R2, Trial 2, contact assay, dose 3.125 μM, 48 hr
  mortality at 3.125 µM: 100%
48 h, read-out: % Mortality R1 + R2, Trial 2, contact assay, dose 12.5 μM, 48 hr
  mortality at 12.5 µM: 100%
48 h, read-out: % Mortality R1 + R2, Trial 2, contact assay, dose 50 μM, 48 hr
  mortality at 50 µM: 100%

Reference: patent US10807992B2, “Single enantiomer antiparasitic compounds” (priority 2017, dated 2020)
